Test results published in ChEMBL document CHEMBL1159186 (Bioorg Med Chem Lett, 1996).

Columns and labels:
[1] = target: Epidermal growth factor receptor (Homo sapiens, UniProt P00533); test: Inhibition of tyrosine kinase Epidermal growth factor receptor
[2] = target: cAMP-dependent protein kinase (PKA) (Homo sapiens, UniProt P22694+P17612+P22612); test: Inhibition of serine/threonine kinase(PKA); type: protein assay, Oryctolagus cuniculus
[3] = target: Protein kinase C alpha type (Homo sapiens, UniProt P17252); test: Inhibition of serine/threonine kinase(PKC-alpha); parameters: species or system Sus scrofa
[4] = target: Platelet-derived growth factor receptor (Homo sapiens, UniProt P09619+P16234); test: Inhibition of tyrosine kinase(PDGF-R); type: protein-complex assay
[5] = target: Protein kinase C delta type (Homo sapiens, UniProt Q05655); test: Inhibition of serine/threonine kinase(PKC-delta); parameters: species or system Sus scrofa
Sequence of Protein kinase C delta type (Q05655 whole entry): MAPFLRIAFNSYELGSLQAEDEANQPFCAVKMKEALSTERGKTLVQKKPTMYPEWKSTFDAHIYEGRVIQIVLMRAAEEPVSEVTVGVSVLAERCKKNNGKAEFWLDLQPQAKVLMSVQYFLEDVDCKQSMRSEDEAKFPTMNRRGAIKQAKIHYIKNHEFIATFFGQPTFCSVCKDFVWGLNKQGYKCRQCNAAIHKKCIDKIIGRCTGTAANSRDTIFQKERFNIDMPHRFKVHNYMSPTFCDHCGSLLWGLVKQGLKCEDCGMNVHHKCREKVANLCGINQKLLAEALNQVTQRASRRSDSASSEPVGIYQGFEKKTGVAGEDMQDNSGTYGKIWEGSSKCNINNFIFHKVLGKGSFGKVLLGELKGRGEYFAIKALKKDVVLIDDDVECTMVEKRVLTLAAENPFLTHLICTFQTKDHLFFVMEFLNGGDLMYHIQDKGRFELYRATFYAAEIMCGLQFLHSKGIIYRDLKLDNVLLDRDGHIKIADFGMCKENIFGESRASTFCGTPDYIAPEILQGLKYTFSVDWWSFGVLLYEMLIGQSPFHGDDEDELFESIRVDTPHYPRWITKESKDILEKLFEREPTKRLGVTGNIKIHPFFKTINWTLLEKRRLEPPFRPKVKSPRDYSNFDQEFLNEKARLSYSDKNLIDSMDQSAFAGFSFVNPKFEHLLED

[6] = target: Proto-oncogene tyrosine-protein kinase Src (Homo sapiens, UniProt P12931); test: Inhibition of tyrosine kinase(c-Src)
Sequence of Proto-oncogene tyrosine-protein kinase Src (P12931 2-536 limits assumed): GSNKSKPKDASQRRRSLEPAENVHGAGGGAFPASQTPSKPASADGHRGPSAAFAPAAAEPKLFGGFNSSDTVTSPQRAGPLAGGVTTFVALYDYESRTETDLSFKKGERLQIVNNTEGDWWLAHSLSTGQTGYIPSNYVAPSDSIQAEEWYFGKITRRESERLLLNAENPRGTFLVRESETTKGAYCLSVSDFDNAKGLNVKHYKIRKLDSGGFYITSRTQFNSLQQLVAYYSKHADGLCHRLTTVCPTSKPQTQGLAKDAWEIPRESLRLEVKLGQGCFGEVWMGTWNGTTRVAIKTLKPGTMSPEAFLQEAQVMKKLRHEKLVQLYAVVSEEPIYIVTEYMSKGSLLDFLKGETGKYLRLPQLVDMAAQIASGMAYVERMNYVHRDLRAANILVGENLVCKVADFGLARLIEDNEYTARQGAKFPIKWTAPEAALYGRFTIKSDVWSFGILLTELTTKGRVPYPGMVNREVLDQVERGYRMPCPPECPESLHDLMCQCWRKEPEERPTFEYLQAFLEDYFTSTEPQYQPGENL

Sequence of Epidermal growth factor receptor (P00533 whole entry): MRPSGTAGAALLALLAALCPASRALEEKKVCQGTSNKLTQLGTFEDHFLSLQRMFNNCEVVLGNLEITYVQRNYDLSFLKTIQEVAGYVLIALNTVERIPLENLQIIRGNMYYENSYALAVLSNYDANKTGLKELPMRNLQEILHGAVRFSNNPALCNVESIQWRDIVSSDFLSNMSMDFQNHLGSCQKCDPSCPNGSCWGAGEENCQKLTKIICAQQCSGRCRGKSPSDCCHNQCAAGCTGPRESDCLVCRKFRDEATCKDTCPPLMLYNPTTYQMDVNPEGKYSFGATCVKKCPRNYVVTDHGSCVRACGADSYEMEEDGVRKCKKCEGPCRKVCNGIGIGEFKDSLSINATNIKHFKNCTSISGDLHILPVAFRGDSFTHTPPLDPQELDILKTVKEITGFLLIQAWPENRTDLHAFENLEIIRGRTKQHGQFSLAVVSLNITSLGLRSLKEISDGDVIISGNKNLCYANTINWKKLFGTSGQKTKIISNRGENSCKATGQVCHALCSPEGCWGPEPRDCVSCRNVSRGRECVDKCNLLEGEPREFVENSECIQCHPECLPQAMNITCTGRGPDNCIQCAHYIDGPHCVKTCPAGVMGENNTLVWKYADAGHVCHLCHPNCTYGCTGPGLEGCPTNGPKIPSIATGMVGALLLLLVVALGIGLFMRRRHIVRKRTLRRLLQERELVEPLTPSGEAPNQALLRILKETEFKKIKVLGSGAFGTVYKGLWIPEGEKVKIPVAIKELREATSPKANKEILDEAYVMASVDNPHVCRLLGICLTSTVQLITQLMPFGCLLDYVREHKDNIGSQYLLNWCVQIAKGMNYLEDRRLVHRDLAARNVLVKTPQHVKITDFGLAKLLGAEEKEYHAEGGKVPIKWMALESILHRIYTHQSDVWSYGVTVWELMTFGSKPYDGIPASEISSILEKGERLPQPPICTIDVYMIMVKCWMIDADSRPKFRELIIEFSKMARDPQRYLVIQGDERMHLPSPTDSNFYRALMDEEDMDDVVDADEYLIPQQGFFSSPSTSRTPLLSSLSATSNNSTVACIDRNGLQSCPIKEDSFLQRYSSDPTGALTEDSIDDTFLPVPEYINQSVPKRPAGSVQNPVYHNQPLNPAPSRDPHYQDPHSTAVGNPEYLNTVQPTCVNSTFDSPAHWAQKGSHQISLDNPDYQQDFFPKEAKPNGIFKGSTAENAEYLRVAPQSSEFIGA

Row | Structure (SMILES) | IC50 [1] [µM] | IC50 [2] [µM] | IC50 [3] [µM] | IC50 [4] [µM] | IC50 [5] [µM] | IC50 [6] [µM]
1 | Cc1ccc([N+](=O)[O-])cc1Nc1nccc(-c2cccnc2)n1 | > 100 | > 500 | > 500 | > 100 | > 500 | > 100
2 | Cc1ccc(C(=O)Nc2ccc(C)c(Nc3nccc(-c4cccnc4)n3)c2)cc1 | > 100 | > 100 | > 100 | 0.01 | > 500 | > 100
3 | CNc1ccc(C)c(Nc2nccc(-c3cccnc3)n2)c1 | > 100 | > 500 | 71 | > 10 | > 100 | 
4 | Cc1ccc(N(C(=O)c2ccccc2)C(=O)c2ccccc2)cc1Nc1nccc(-c2cccnc2)n1 | 75 | > 500 | > 100 | 2.5 | > 100 | 
5 | O=C(Nc1cccc(Nc2nccc(-c3cccnc3)n2)c1)c1ccccc1 | > 50 | > 500 | 1.2 | 5 | 23 | 15.7
6 | Cc1ccc(N)cc1Nc1nccc(-c2cccnc2)n1 | > 100 | > 500 | > 100 | > 10 | > 500 | > 100
7 | CC(=O)Nc1ccc(C)c(Nc2nccc(-c3cccnc3)n2)c1 | > 100 | > 500 | > 100 | 50 | > 500 | > 100

Results, then the compound that gave them:

Row | IC50 [1] [µM] | IC50 [2] [µM] | IC50 [3] [µM] | IC50 [4] [µM] | IC50 [5] [µM] | IC50 [6] [µM] | Structure (SMILES)
8 | > 100 | > 100 | > 100 | 0.05 | > 500 | > 100 | Cc1ccc(NC(=O)c2ccc3ccccc3c2)cc1Nc1nccc(-c2cccnc2)n1
9 |  | > 500 | 72 |  | > 500 |  | Cc1ccc(NC(=O)c2ccccc2)cc1Nc1nccc(-c2cccnc2)n1
10 | > 100 | > 500 | > 100 | > 10 | > 100 | > 100 | Cc1ccc(NC(=O)c2ccccc2)cc1Nc1nccc(-c2cccs2)n1
11 | > 100 | > 500 | > 100 | > 10 | > 100 |  | Cc1ccc(NC(=O)c2ccccc2)cc1Nc1nccc(-c2ccc[n+]([O-])c2)n1
12 | > 100 | > 500 | 10 | > 10 | > 100 |  | COc1ccc(NC(=O)c2ccccc2)cc1Nc1nccc(-c2cccnc2)n1
13 | > 100 | > 100 | > 100 | 0.01 | > 500 | > 100 | Cc1ccc(NC(=O)c2ccc(Cl)cc2)cc1Nc1nccc(-c2cccnc2)n1
14 | 49 | > 500 | 85 | > 100 | > 100 |  | Cc1ccc(N(C)C(=O)c2ccccc2)cc1Nc1nccc(-c2cccnc2)n1
15 | > 100 | > 500 | > 100 | 0.15 | > 100 |  | O=C(Nc1ccc(Cl)c(Nc2nccc(-c3cccnc3)n2)c1)c1ccccc1
16 | > 100 | > 500 | > 100 | 0.3 | > 500 | > 100 | COc1ccccc1C(=O)Nc1ccc(C)c(Nc2nccc(-c3cccnc3)n2)c1
